SMILES strings stand for the structures.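 Values below derive from 48-hour exposures of cells grown in 96-well plates, with endpoints linearly interpolated between the two concentrations bracketing the appropriate inhibition level. GI50 is the concentration that inhibits growth by half. At the TGI there is no net growth.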

The values below come from PubChem BioAssay (NCI).

Some test systems named below: IGROV1 ovarian; SK-MEL-5 melanoma; U251 CNS; HOP-62 NSCLC; NCI-H226 lung; T-47D breast; MDA-MB-231 breast; OVCAR-3 ovarian; SF-268 CNS; HS 578T breast.
Common to all, as to experiment: NCI tumour cell line growth inhibition, 48 h

Consider `Oc1ccc2ccccc2c1N=Nc1nccs1`, for which the GI50 is 0.172 µM in the assay on IGROV1 ovarian; 3.55 µM in the assay on SK-MEL-5 melanoma; 0.29 µM with U251 CNS; 3.87 µM in the assay with HOP-62 NSCLC; 2.75 µM in the assay on NCI-H226 lung; 1.71 µM in the assay on T-47D breast. The GI50 in the assay on MDA-MB-231 breast is 0.745 µM; with OVCAR-3 ovarian, 0.417 µM; with SF-268 CNS it was 0.312 µM; in the assay on HS 578T breast it was 4.55 µM. Further, the TGI was 6.95 µM in the assay on IGROV1 ovarian; 15.6 µM in the assay on SK-MEL-5 melanoma; 13.4 µM with U251 CNS; 56.8 µM in the assay with HOP-62 NSCLC; more than 52.9 µM in the assay with NCI-H226 lung; 12.6 µM in the assay with T-47D breast. For the same compound, the TGI in the assay with MDA-MB-231 breast is more than 100 µM; in the assay with OVCAR-3 ovarian it was 8.99 µM; with SF-268 CNS, more than 100 µM; in the assay on HS 578T breast, 45.2 µM.

Turning to `O=C(/C(Br)=C/c1ccccc1)c1ccccc1`, the GI50 was 1.66 µM in the assay with IGROV1 ovarian; 4.96 µM with SK-MEL-5 melanoma; 1.83 µM with U251 CNS; 2.29 µM in the assay on HOP-62 NSCLC; 3.5 µM in the assay on NCI-H226 lung; 1.82 µM in the assay on T-47D breast. Further, the GI50 with MDA-MB-231 breast was 2.44 µM; with OVCAR-3 ovarian, 2.2 µM; with SF-268 CNS, 4.56 µM; in the assay on HS 578T breast, 8.12 µM. Moreover, the TGI with IGROV1 ovarian worked out at 4.68 µM; in the assay with SK-MEL-5 melanoma, 17.3 µM; in the assay with U251 CNS, 4.4 µM; in the assay with HOP-62 NSCLC it was 6.1 µM; in the assay on NCI-H226 lung, 14.1 µM; in the assay on T-47D breast, 4.71 µM. The TGI in the assay on MDA-MB-231 breast turned out to be 5.12 µM; in the assay with OVCAR-3 ovarian it was 5.59 µM; with SF-268 CNS it was 16.7 µM; with HS 578T breast, 52.4 µM.

Turning to `C=C1C(=O)O[C@H]2[C@H]1CC/C(Cn1cc(-c3ccc(OC)cc3)nn1)=C\CC[C@@]1(C)O[C@@H]21`, the GI50 in the assay on IGROV1 ovarian was 1.35 µM; in the assay with SK-MEL-5 melanoma, 2.1 µM; in the assay on U251 CNS, 9.45 µM; with HOP-62 NSCLC it was 10.5 µM; in the assay with NCI-H226 lung, 1.99 µM; in the assay on T-47D breast, 1.43 µM. Further, the GI50 was 1.44 µM in the assay with MDA-MB-231 breast, 0.569 µM in the assay with OVCAR-3 ovarian, 2.07 µM in the assay with SF-268 CNS and 7.42 µM in the assay with HS 578T breast. In addition, the TGI in the assay with IGROV1 ovarian stood at 3.27 µM; with SK-MEL-5 melanoma, 4.69 µM; in the assay with U251 CNS it was 21.5 µM; with HOP-62 NSCLC, 23.1 µM; with NCI-H226 lung, 4.45 µM; with T-47D breast it was 3.08 µM. Besides, the TGI in the assay on MDA-MB-231 breast amounted to 3.15 µM; with OVCAR-3 ovarian, 1.8 µM; with SF-268 CNS, 5.23 µM; with HS 578T breast, 36.9 µM.

Turning to `Cc1ccc(NC(=O)c2cccc(N(C)C)c2)cc1NC(=O)c1ccc(O)cc1`, the GI50 with IGROV1 ovarian was more than 85.8 µM; in the assay with SK-MEL-5 melanoma, 28.5 µM; in the assay with U251 CNS, more than 68.8 µM; with HOP-62 NSCLC it was 54.2 µM; in the assay on NCI-H226 lung, more than 71.4 µM; with T-47D breast it was more than 48.7 µM. Moreover, the GI50 is 33 µM in the assay with MDA-MB-231 breast, 67.3 µM with OVCAR-3 ovarian, 44.6 µM in the assay with SF-268 CNS and 63.6 µM with HS 578T breast. The TGI in the assay with IGROV1 ovarian was more than 100 µM; in the assay with SK-MEL-5 melanoma, more than 65.8 µM; in the assay on U251 CNS it was more than 100 µM; in the assay on HOP-62 NSCLC, more than 100 µM; with NCI-H226 lung, more than 100 µM; in the assay on T-47D breast, more than 79.2 µM. For the same compound, the TGI in the assay with MDA-MB-231 breast is more than 93.6 µM; with OVCAR-3 ovarian it was more than 100 µM; in the assay on SF-268 CNS it was more than 100 µM; with HS 578T breast, more than 100 µM.

Take `CC1(C)OC2[C@@H](CNC(=O)NC(=O)NC(=O)CI)O[C@@H](n3cnc4c(NC(=O)Nc5ccccc5)ncnc43)[C@H]2O1` (some centres undefined): the GI50 in the assay with IGROV1 ovarian is 2.15 µM; with SK-MEL-5 melanoma, 8.74 µM; in the assay with U251 CNS, 10 µM; with HOP-62 NSCLC it was more than 50 µM; with NCI-H226 lung it was 8.96 µM; with T-47D breast, 9.64 µM. Moreover, the GI50 in the assay with MDA-MB-231 breast is 9.42 µM; in the assay with OVCAR-3 ovarian it was 5.72 µM; in the assay with SF-268 CNS it was 8.22 µM; in the assay on HS 578T breast it was 12.5 µM. Besides, the TGI was 8.6 µM with IGROV1 ovarian; 16.2 µM in the assay with SK-MEL-5 melanoma; 20.4 µM in the assay with U251 CNS; more than 50 µM in the assay with HOP-62 NSCLC; 20.3 µM in the assay with NCI-H226 lung; 21.5 µM in the assay with T-47D breast. The TGI amounted to 19.4 µM in the assay with MDA-MB-231 breast, 12.6 µM with OVCAR-3 ovarian, 17.1 µM with SF-268 CNS and 37.8 µM in the assay with HS 578T breast.

For the compound `CC[C@]1(O)C[C@@H]2CN(CCc3c([nH]c4ccccc34)[C@@](C(=O)OC)(c3cc4c(cc3OC)N(C)[C@H]3[C@@](O)(C(=O)OC)[C@H](OC(C)=O)[C@]5(CC)C=CCN6CC[C@]43[C@@H]65)C2)C1`, the GI50 in the assay with IGROV1 ovarian was less than 0.01 µM; with SK-MEL-5 melanoma, less than 0.01 µM; with U251 CNS, less than 0.01 µM; in the assay with HOP-62 NSCLC it was less than 0.01 µM; in the assay on T-47D breast, 8.59 µM; in the assay on MDA-MB-231 breast it was less than 0.01 µM. Further, the GI50 in the assay on OVCAR-3 ovarian was less than 0.01 µM; in the assay on SF-268 CNS, less than 0.0281 µM; with HS 578T breast it was less than 0.01 µM. Besides, the TGI with IGROV1 ovarian was 13 µM; in the assay on SK-MEL-5 melanoma, less than 0.0385 µM; with U251 CNS, 20.5 µM; in the assay on HOP-62 NSCLC, 24.1 µM; in the assay on NCI-H226 lung it was 17.7 µM; with T-47D breast it was more than 100 µM. Also, the TGI is 11.2 µM in the assay on MDA-MB-231 breast, less than 0.01 µM with OVCAR-3 ovarian, 19.5 µM in the assay on SF-268 CNS and 10.8 µM in the assay with HS 578T breast.

For the compound `COc1cc(C2=C(c3ccccc3)COC2=O)cc(OC)c1OC`, the GI50 was 5.82 µM with IGROV1 ovarian; 1.4 µM in the assay with SK-MEL-5 melanoma; 5.86 µM in the assay with U251 CNS; 2.07 µM with HOP-62 NSCLC; 59.2 µM in the assay with NCI-H226 lung; 20.9 µM in the assay on T-47D breast. In addition, the GI50 in the assay with MDA-MB-231 breast is 3.2 µM; in the assay with OVCAR-3 ovarian, 0.309 µM; in the assay on SF-268 CNS, 2.39 µM; in the assay with HS 578T breast, 5.61 µM. In addition, the TGI in the assay with IGROV1 ovarian was more than 56.5 µM; in the assay on SK-MEL-5 melanoma, 19.3 µM; in the assay with U251 CNS it was more than 100 µM; with HOP-62 NSCLC it was more than 100 µM; with NCI-H226 lung it was more than 100 µM; in the assay on T-47D breast, more than 100 µM. Further, the TGI in the assay on MDA-MB-231 breast is more than 100 µM; in the assay with OVCAR-3 ovarian, 2.1 µM; with SF-268 CNS, more than 76.5 µM; in the assay on HS 578T breast, more than 90 µM.
